Source: patent US20250326785A1, “SODIUM SALT AND ETHANOLAMINE SALT OF 23-HYDROXYTORMENTIC ACID” (HUYABIO International, LLC, priority 2024, published 2025)

Tests used:
[1] = test system: human embryonic stem cells (hESCs); assay: Induction of differentiation of hESCs to cardiomyocytes; assay type: cell-based
Experimental: In order to test the effect of HBI-3808 on human embryonic stem cells (hESCs) on stimulating differentiation to cardiomyocytes (CMs), hESCs were incubated in the presence of media (see legend, FIG. 31) or 100 ng/ml HBI-3808.

VEGF = VEGF enrichment and angiogenesis induction by HBI-3808 conditioned media/supernatant; assay type: cell-based

C[C@@H]1CC[C@]2(C(=O)O)CC[C@]3(C)C(=CCC4[C@@]5(C)C[C@@H](O)[C@H](O)[C@@](C)(CO)C5CC[C@]43C)C2[C@]1(C)O (stereo partly shown) [HBI-3808, 23-hydroxytormentic acid]
differentiation of hESCs to cardiomyocytes (CMs) ([1]; 100 ng/ml HBI-3808, day 13): successfully stimulated hESCs to differentiate into viable, beating CMs by day 13 | modulation of cardiac-associated genes ([1]; 100 ng/ml, days 1, 3, 6, 9, 13): produced detectable modulation of cardiac-associated genes | VEGF in media harvested from treated CMs (VEGF): enriched in VEGF | angiogenesis in supernatant of CM cell suspensions (VEGF): induces angiogenesis
